Data taken from patent US20250205316A1, “COLLOIDAL FIBRIN NANOPARTICLE COMPOSITIONS AND USES” (NORTH CAROLINA STATE UNIVERSITY, priority 2023, published 2025).
Where two headings read alike, the source gives them in different places.

Tests used:
HUVECs and HLFs = test: Microfluidic vasculogenesis assay with free tazarotene; format: cell-based, human
Protocol: The effects of tazarotene dosage on vascular network formation were investigated through the use of an established microfluidic vasculogenesis model (FIG. 12A). HUVECs and HLFs were embedded in 2 mg/mL human fibrin gels made 25 mM HEPES buffer and 0.5 U/mL thrombin. Media channels in the microdevice (FIG. 12A) were filled with HUVEC media supplemented with free tazarotene. Daily media changes and brightfield imaging were completed until cells were fixed with 4% paraformaldehyde at 1 week after seeding. Cells were permeabilized with 0.3% Triton X-100 (Sigma), immunostained with PEKAM-1 antibody (ThermoFisher), and stained with phalloidin (Invitrogen) and DAPI (Invitrogen) in order to visualize networks of both HUVECs and HLFs. Imaging was performed using a confocal microscope with a 10× objective. At least 3 devices were imaged for each experimental group and 3 images were taken per device. ImageJ was used to quantify vascular network characteristics (average segment length, average segment width, average number of branch points, and total endothelial area).

HUVECs = test: HUVEC morphology and attachment on tazarotene-loaded thin films; format: cell-based, human
Protocol: The effects of tazarotene released from bulk fibrin gels on individual cellular morphology was determined through the low-density culture of HUVECs on thin films of loaded fibrin gels. Fibrin gels with varying concentrations of bulk tazarotene incorporated were allowed to polymerize between two clean glass coverslips for 1 hour, in order to form thin films. Thin films of 80 μL were made using 2 mg/ml human fibrinogen (Enzyme Research Laboratories), HEPES buffer (25 mM), and 0.5 U/ml human thrombin. Upon removal of one glass coverslip, the remaining glass and attached gel were placed within the well of a 12-well plate and rinsed with PBS. HUVECs (15,000 cells/well) were cultured for 16 hours, at which point they were fixed and stained. Images of cells were captured at 10× using an EVOS FL Auto Imaging System, with at least 5 images taken per thin film. In order to validate the nanoparticle release of tazarotene from FBNs, 80 μL FBN gel (330 M particles/mL) thin films were formed with different relative ratios of tazarotene-loaded to unloaded FBNs. All other elements of the procedure were the same.

[1] = fibrin gel thin films bulk loaded with tazarotene, 16 hours

## CCOC(=O)c1ccc(C#Cc2ccc3c(c2)C(C)(C)CCS3)nc1 [tazarotene]
HUVECs and HLFs
  average network segment width: 36±11 μm
HUVECs and HLFs; 20 nM free tazarotene, 1 week
  average segment length: 218±54 μm
HUVECs and HLFs; 2 μM free tazarotene, 1 week
  average network segment width: 23±4 μm
  average segment length: 226±40 μm
  endothelial network area: 130167±61886 μm^2
HUVECs and HLFs; 20 μM free tazarotene, 1 week
  endothelial network area: 206,763±51,803 μm^2
HUVECs and HLFs; 200 μM free tazarotene, 1 week
  average network segment width: 31±7 μm
  endothelial network area: 240,770±44,210 μm^2
HUVECs and HLFs; 2000 μM free tazarotene, 1 week
  endothelial network area: 230,087±51,803 μm^2
HUVECs and HLFs; across tazarotene concentrations
  branch points: No significant differences
HUVECs; [1]
  concentration with the most cell spreading: 200 nM
  effect on cellular attachment: no significant effect
HUVECs; with increasing concentrations
  cell circularity: less circularity
  cell perimeter: greater perimeter
